{
  "source": "patent US20220313708A1",
  "about": "“COMBINATION PRODUCT CONTAINING LIMONOID COMPOUND AND SGLT-2 INHIBITOR” (ZHEJIANG YANGSHENGTANG INSTITUTE OF NATURAL MEDICATION CO., …, priority 2019, published 2022)",
  "assay_type_in_all_cases": "in vivo",
  "key": {"[1]": {"tested_on": "mouse pancreatic islet β-cell injury model (STZ)", "experiment": "Blood glucose in STZ mouse pancreatic islet β-cell injury model (Example 1, canagliflozin)", "conditions": "STZ ICR mice; single agent 0.02 g/kg per day by gavage, two weeks; 1 h after last administration; mean ± SD", "source_text": "(§1) In this example, a mouse pancreatic islet β-cell injury model was established by modeling ICR mice with streptozotocin (STZ) (Li Nan et al., Protective effect of pine pollen on kidney damage in diabetic nephropathy mice, Science and Technology Review, 2014, 32 (4/5): 95-99), and used to complete the evaluation of hypoglycemic effect in animals (this model could simulate pancreatic islet β-cell damage state of type I and type II diabetics). The limonoid compound was selected from the group consisting of limonin, isolimonic acid, limonin glycoside, and isolimonic acid glycoside, and canagliflozin single administration group, limonin single administration group, isolimonic acid single administration group, limonin glycoside singe administration group, isolimonic acid glycoside singe administration group, and respective combination thereof with canagliflozin administration groups were set.\n(§2) Conditions of experimental feeding: ICR mice (20±2 g), aged 6 weeks, purchased from Zhejiang Academy of Medical Sciences, and subjected to experimental feeding after 7 days of preliminary feeding. It should be noted that the conditions for raising the mice were as follows: the temperature was 23±1° C., the humidity was 55±10%, the lights were turned on between 7 am and 7 pm (the lights were turned off at other time), and the mice were allowed to freely take in water and feed. […]"}, "[2]": {"tested_on": "mouse type II diabetes model (db/db mice)", "experiment": "Serum leptin by ELISA in db/db mouse type II diabetes model (Example 2)", "conditions": "single agent 0.04 g/kg per day by gavage, two weeks, mean ± SD", "source_text": "(§3) In the present example, db/db mice (line name BKS.Cg-Dock7^m+/+Lepr^db/Nju) were used to perform hypoglycemic efficacy evaluation test of animals (blood glucose level and leptin). The limonoid compound was selected from obacunone, isoobacunoic acid and obacunone glycoside, and dapagliflozin single administration group, obacunone single administration group, isoobacunoic acid single administration group, obacunone glycoside single administered group, and respective combination thereof with dapagliflozin administration groups were set. Conditions for experimental feeding: as type II diabetes model mice, 6-week-old SPF-grade db/db mice were purchased from the Nanjing Model Biology Institute, and subjected to experimental feeding after 7 days of preliminary feeding. It should be noted that the conditions for raising the mice were as follows: the temperature was 23±1° C., the humidity was 55±10%, the lights were turned on between 7 am and 7 pm (the lights were turned off at other time), and the mice were allowed to freely take in water and feed. […] The data were expressed as mean and standard deviation. The data before and after were analyzed by t-test, and P<0.05 was considered statistically significant."}, "[3]": {"tested_on": "mouse type II diabetes model (db/db mice)", "experiment": "Blood glucose in db/db mouse type II diabetes model (Example 2, dapagliflozin)", "conditions": "single agent 0.04 g/kg per day by gavage, two weeks, 1 h after last administration, mean ± SD", "source_text": "as §3"}, "[4]": {"tested_on": "mouse pancreatic islet β-cell injury model (STZ)", "experiment": "Blood glucose in STZ mouse pancreatic islet β-cell injury model (Example 3, empagliflozin)", "conditions": "STZ ICR mice; single agent 0.1 g/kg per day by gavage, two weeks; 1 h after last administration; mean ± SD", "source_text": "as §1, with “ichangin, ichangensin, and ichangin” for “limonin, isolimonic acid, limonin”, “empagliflozin” for “isolimonic acid glycoside, and canagliflozin”, “ichangin” for “limonin”, “ichangensi” for “isolimonic acid”, “ichangin” for “limonin glycoside singe administration group, isolimonic acid”, “empagliflozin” for “canagliflozin”\nas §2"}, "[5]": {"tested_on": "mouse type II diabetes model (db/db mice)", "experiment": "Blood glucose in db/db mouse type II diabetes model (Example 4, ipragliflozin)", "conditions": "single agent 0.2 g/kg per day by gavage, two weeks, 1 h after last administration, mean ± SD", "source_text": "(§4) In the present embodiment, the limonoid compound was selected nomilin, deacetylnomilin, nomilin acid, deacetylnomilin acid glycoside, and ipragliflozin single administration group, nomilin single administration group, deacetylnomilin single administration group, nomilin acid single administered group, deacetylnomilin acid glycoside single administration group, and respective combination thereof with ipragliflozin administration groups were set.\n(§5) Conditions for experimental feeding: as type II diabetes model mice, 6-week-old SPF-grade db/db mice were purchased from the Nanjing Model Biology Institute, and subjected to experimental feeding after 7 days of preliminary feeding. It should be noted that the conditions for raising the mice were as follows: the temperature was 23±1° C., the humidity was 55±10%, the lights were turned on between 7 am and 7 pm (the lights were turned off at other time), and the mice were allowed to freely take in water and feed. The experimental feed was mouse growth-stable feed (GB M2118), and the daily feeding and management of the animals were under the responsibility of the animal security department, which provided the animals with sufficient diet and fresh drinking water daily.\n(§6) Experimental grouping: male db/db mice (20±2 g) were selected, 18 male mice in each group were tested, and drinking bottles were sterilized weekly. […]"}, "[6]": {"tested_on": "mouse type II diabetes model (db/db mice)", "experiment": "Serum insulin by ELISA in db/db mouse type II diabetes model (Example 4)", "conditions": "single agent 0.2 g/kg per day by gavage, two weeks, mean ± SD", "source_text": "as §4, §5, §6"}},
  "data": [
    {"compound": "Cc1ccc([C@@H]2O[C@H](CO)[C@@H](O)[C@H](O)[C@H]2O)cc1Cc1ccc(-c2ccc(F)cc2)s1", "note": "[Canagliflozin, canagliflozin]", "values": [
      {"measurement": "Blood glucose value", "setting": "[1]", "result": "19.1 ± 4.1", "unit": "mmol/L"}
    ]},
    {"compound": "CCOc1ccc(Cc2cc([C@@H]3O[C@H](CO)[C@@H](O)[C@H](O)[C@H]3O)ccc2Cl)cc1", "note": "[Dapagliflozin, dapagliflozin]", "values": [
      {"measurement": "Leptin", "setting": "[2]", "result": "25.34 ± 5.26", "unit": "pg/mL"},
      {"measurement": "Blood glucose value", "setting": "[3]", "result": "12.0 ± 2.9", "unit": "mmol/L"}
    ]},
    {"compound": "OC[C@H]1O[C@@H](c2ccc(Cl)c(Cc3ccc(O[C@H]4CCOC4)cc3)c2)[C@H](O)[C@@H](O)[C@@H]1O", "note": "[Empagliflozin, empagliflozin]", "values": [
      {"measurement": "Blood glucose value", "setting": "[4]", "result": "13.9 ± 2.0", "unit": "mmol/L"}
    ]},
    {"compound": "OC[C@H]1O[C@@H](c2ccc(F)c(Cc3cc4ccccc4s3)c2)[C@H](O)[C@@H](O)[C@@H]1O", "note": "[Ipragliflozin, ipragliflozin]", "values": [
      {"measurement": "Blood glucose value", "setting": "[5]", "result": "10.3 ± 2.3", "unit": "mmol/L"},
      {"measurement": "Insulin", "setting": "[6]", "result": "7.61 ± 1.03", "unit": "pg/mL"}
    ]}
  ]
}
